Patent publication US20240208992A1, “MACROCYCLES AS CFTR MODULATORS” (Idorsia Pharmaceuticals Ltd, priority 2021, published 2024)

Molecular target: human F508del-CFTR (Homo sapiens, UniProt P13569, DEL508-508)
Assay: F508del-CFTR cell surface expression (corrector activity), DiscoveRx ß-galactosidase complementation chemiluminescence assay in recombinant U2OS cell line;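 note: U2OS cells co-expressing ProLink-tagged F508del-CFTR and a membrane-anchored enzyme acceptor, where more surface CFTR restores β-galactosidase activity measured by chemiluminescence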
Details: U2OS cells, 16h compound incubation; for EC50: EC50, F508del-CFTR cell surface expression, geomean of several measurements; for Emax: U2OS, in relation to the Emax of the corrector lumacaftor (=100%), arithmetic mean

Sequence of human F508del-CFTR (P13569 with tags, fused parts or gaps DEL508-508): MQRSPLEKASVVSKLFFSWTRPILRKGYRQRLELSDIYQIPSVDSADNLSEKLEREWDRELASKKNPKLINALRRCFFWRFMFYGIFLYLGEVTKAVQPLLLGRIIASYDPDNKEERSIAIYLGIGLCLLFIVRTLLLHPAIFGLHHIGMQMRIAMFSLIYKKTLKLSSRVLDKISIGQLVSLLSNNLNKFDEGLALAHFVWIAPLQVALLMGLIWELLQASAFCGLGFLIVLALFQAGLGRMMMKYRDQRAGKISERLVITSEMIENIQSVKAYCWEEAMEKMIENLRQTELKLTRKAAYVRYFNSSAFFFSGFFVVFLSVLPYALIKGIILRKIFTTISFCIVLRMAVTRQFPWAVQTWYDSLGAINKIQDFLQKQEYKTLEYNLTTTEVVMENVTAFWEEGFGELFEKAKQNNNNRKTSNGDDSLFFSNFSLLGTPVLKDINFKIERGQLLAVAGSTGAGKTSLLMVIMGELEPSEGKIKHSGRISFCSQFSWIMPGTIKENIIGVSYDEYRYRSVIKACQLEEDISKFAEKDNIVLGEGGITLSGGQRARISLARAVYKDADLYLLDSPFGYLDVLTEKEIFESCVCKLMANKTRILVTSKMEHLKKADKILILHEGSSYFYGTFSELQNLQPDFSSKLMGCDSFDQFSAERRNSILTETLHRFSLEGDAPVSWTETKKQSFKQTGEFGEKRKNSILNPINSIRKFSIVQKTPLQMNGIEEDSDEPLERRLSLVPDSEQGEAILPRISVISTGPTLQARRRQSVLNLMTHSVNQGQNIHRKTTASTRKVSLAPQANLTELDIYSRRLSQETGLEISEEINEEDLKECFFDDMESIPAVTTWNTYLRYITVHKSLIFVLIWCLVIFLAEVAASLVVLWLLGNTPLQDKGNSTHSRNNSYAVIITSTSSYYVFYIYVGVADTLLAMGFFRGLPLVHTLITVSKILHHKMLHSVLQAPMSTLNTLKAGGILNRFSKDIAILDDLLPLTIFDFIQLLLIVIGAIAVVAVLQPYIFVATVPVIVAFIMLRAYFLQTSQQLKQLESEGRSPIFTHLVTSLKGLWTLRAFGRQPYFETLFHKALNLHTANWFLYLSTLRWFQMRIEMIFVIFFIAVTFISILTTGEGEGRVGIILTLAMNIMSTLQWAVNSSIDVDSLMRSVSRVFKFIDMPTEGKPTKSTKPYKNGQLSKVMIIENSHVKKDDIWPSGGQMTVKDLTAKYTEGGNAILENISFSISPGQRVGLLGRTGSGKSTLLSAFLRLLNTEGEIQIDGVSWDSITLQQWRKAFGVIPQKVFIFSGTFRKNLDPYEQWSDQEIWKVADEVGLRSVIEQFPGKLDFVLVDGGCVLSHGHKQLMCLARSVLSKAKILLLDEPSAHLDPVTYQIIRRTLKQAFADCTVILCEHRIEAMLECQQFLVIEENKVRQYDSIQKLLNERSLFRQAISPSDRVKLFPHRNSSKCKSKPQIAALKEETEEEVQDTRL

| EC50 | Emax | SMILES |
| --- | --- | --- |
| 26 nM | 469% | Cc1cc2c(c3cccnc13)C(=O)N[C@H](C(=O)NCCc1nc(C3CC3)no1)CC(=O)N(C)[C@@H](CC(C)C)C(=O)N(C)[C@H](Cc1nc(C(F)(F)F)no1)C(=O)N[C@H](Cc1ccccc1)CO2 [Example 936, (3S,7S,10R,13R)-13-benzyl-N-(2-(3-cyclopropyl-1,2,4-oxadiazol-5-yl)ethyl)-7-isobutyl-6,9,17-trimethyl-1,5,8,11-tetraoxo-10-((3-(trifluoromethyl)-1,2,4-oxadiazol-5-yl)methyl)-1,2,3,4,5,6,7,8,9,10,11,12,13,14-tetradecahydro-[1]oxa[4,7,10,14]tetraazacycloheptadecino[16,17-f]quinoline-3-carboxamide] |
| 59 nM | 460% | CC(C)C[C@H]1C(=O)N(C)[C@H](Cc2nc(C(F)(F)F)no2)C(=O)N[C@H](Cc2ccccc2)COc2ccc3ncc(F)cc3c2C(=O)N[C@H](C(=O)NCCn2nc3ccccc3n2)CC(=O)N1C [Example 937, (3S,7S,10R,13R)-N-(2-(2H-benzo[d][1,2,3]triazol-2-yl)ethyl)-13-benzyl-20-fluoro-7-isobutyl-6,9-dimethyl-1,5,8,11-tetraoxo-10-((3-(trifluoromethyl)-1,2,4-oxadiazol-5-yl)methyl)-1,2,3,4,5,6,7,8,9,10,11,12,13,14-tetradecahydro-[1]oxa[4,7,10,14]tetraazacycloheptadecino[16,17-f]quinoline-3-carboxamide] |
| 245 nM | 498% | COc1noc(CCNC(=O)[C@@H]2CC(=O)N(C)[C@@H](CC(C)C)C(=O)N(C)[C@H](CC(F)(F)F)C(=O)N[C@H](Cc3ccccc3)COc3ccc4cnc(C)cc4c3C(=O)N2)n1 [Example 938, (3S,7S,10R,13R)-13-benzyl-7-isobutyl-N-(2-(3-methoxy-1,2,4-oxadiazol-5-yl)ethyl)-6,9,20-trimethyl-1,5,8,11-tetraoxo-10-(2,2,2-trifluoroethyl)-1,2,3,4,5,6,7,8,9,10,11,12,13,14-tetradecahydro-[1]oxa[4,7,10,14]tetraazacycloheptadecino[16,17-f]isoquinoline-3-carboxamide] |
| 737 nM | 288% | COc1noc(CCNC(=O)[C@@H]2CC(=O)N(C)[C@@H](CC(C)C)C(=O)N(C)[C@@H](CC(F)(F)F)C(=O)N[C@H](Cc3ccccc3)COc3ccc4cnc(C)cc4c3C(=O)N2)n1 [Example 939, (3S,7S,10S,13R)-13-benzyl-7-isobutyl-N-(2-(3-methoxy-1,2,4-oxadiazol-5-yl)ethyl)-6,9,20-trimethyl-1,5,8,11-tetraoxo-10-(2,2,2-trifluoroethyl)-1,2,3,4,5,6,7,8,9,10,11,12,13,14-tetradecahydro-[1]oxa[4,7,10,14]tetraazacycloheptadecino[16,17-f]isoquinoline-3-carboxamide] |
| 673 nM | 298% | COc1noc(CCNC(=O)[C@@H]2CC(=O)N(C)[C@@H](CC(C)C)C(=O)N(C)[C@@H](CC(F)(F)F)C(=O)N[C@H](Cc3ccccc3)COc3ccc4ncc(F)cc4c3C(=O)N2)n1 [Example 940, (3S,7S,10S,13R)-13-benzyl-20-fluoro-7-isobutyl-N-(2-(3-methoxy-1,2,4-oxadiazol-5-yl)ethyl)-6,9-dimethyl-1,5,8,11-tetraoxo-10-(2,2,2-trifluoroethyl)-1,2,3,4,5,6,7,8,9,10,11,12,13,14-tetradecahydro-[1]oxa[4,7,10,14]tetraazacycloheptadecino[16,17-f]quinoline-3-carboxamide] |
| 135 nM | 459% | COc1noc(CCNC(=O)[C@@H]2CC(=O)N(C)[C@@H](CC(C)C)C(=O)N(C)[C@H](CC(F)(F)F)C(=O)N[C@H](Cc3ccccc3)COc3ccc4ncc(F)cc4c3C(=O)N2)n1 [Example 941, (3S,7S,10R,13R)-13-benzyl-20-fluoro-7-isobutyl-N-(2-(3-methoxy-1,2,4-oxadiazol-5-yl)ethyl)-6,9-dimethyl-1,5,8,11-tetraoxo-10-(2,2,2-trifluoroethyl)-1,2,3,4,5,6,7,8,9,10,11,12,13,14-tetradecahydro-[1]oxa[4,7,10,14]tetraazacycloheptadecino[16,17-f]quinoline-3-carboxamide] |
| 194 nM | 460% | COc1noc(CCNC(=O)[C@@H]2CC(=O)N(C)[C@@H](CC(C)C)C(=O)N(C)[C@H](CC(F)(F)F)C(=O)N[C@H](Cc3ccccc3)COc3cc(C)nc(OC)c3C(=O)N2)n1 [Example 942, (3R,6R,9S,13S)-3-benzyl-9-isobutyl-16-methoxy-N-(2-(3-methoxy-1,2,4-oxadiazol-5-yl)ethyl)-7,10,18-trimethyl-5,8,11,15-tetraoxo-6-(2,2,2-trifluoroethyl)-2,3,4,5,6,7,8,9,10,11,12,13,14,15-tetradecahydropyrido[3,4-p][1]oxa[4,7,10,14]tetraazacycloheptadecine-13-carboxamide] |
| 240 nM | 471% | COc1nc(C)cc2c1C(=O)N[C@H](C(=O)NC[C@@H](O)c1nc(C3CC3)no1)CC(=O)N(C)[C@@H](CC(C)C)C(=O)N(C)[C@H](Cc1nc(C(F)(F)F)no1)C(=O)N[C@H](Cc1ccccc1)CO2 [Example 943, (3R,6R,9S,13S)-3-benzyl-N-((R)-2-(3-cyclopropyl-1,2,4-oxadiazol-5-yl)-2-hydroxyethyl)-9-isobutyl-16-methoxy-7,10,18-trimethyl-5,8,11,15-tetraoxo-6-((3-(trifluoromethyl)-1,2,4-oxadiazol-5-yl)methyl)-2,3,4,5,6,7,8,9,10,11,12,13,14,15-tetradecahydropyrido[3,4-p][1]oxa[4,7,10,14]tetraazacycloheptadecine-13-carboxamide] |
| 77 nM | 336% | CC(C)C[C@H]1C(=O)N(C)[C@H](Cc2nc(C(F)(F)F)no2)C(=O)N[C@H](Cc2ccccc2)COc2ccc3ncc(F)cc3c2C(=O)N[C@H](C(=O)NCCCOC(F)F)CC(=O)N1C [Example 944, (3S,7S,10R,13R)-13-benzyl-N-(3-(difluoromethoxy)propyl)-20-fluoro-7-isobutyl-6,9-dimethyl-1,5,8,11-tetraoxo-10-((3-(trifluoromethyl)-1,2,4-oxadiazol-5-yl)methyl)-1,2,3,4,5,6,7,8,9,10,11,12,13,14-tetradecahydro-[1]oxa[4,7,10,14]tetraazacycloheptadecino[16,17-f]quinoline-3-carboxamide] |
| 33 nM | 502% | COc1noc(CCNC(=O)[C@@H]2CC(=O)N(C)[C@@H](CC(C)C)C(=O)N(C)[C@H](Cc3nc(C(F)(F)F)no3)C(=O)N[C@H](Cc3ccccc3)COc3cc(C)nc(OC)c3C(=O)N2)c1F [Example 945, (3R,6R,9S,13S)-3-benzyl-N-(2-(4-fluoro-3-methoxyisoxazol-5-yl)ethyl)-9-isobutyl-16-methoxy-7,10,18-trimethyl-5,8,11,15-tetraoxo-6-((3-(trifluoromethyl)-1,2,4-oxadiazol-5-yl)methyl)-2,3,4,5,6,7,8,9,10,11,12,13,14,15-tetradecahydropyrido[3,4-p][1]oxa[4,7,10,14]tetraazacycloheptadecine-13-carboxamide] |
| 447 nM | 404% | Cc1cc(CCNC(=O)[C@@H]2CC(=O)N(C)[C@@H](CC(C)C)C(=O)N(C)[C@H](CC(F)F)C(=O)N[C@H](Cc3ccccc3)COc3ccc4ncc(F)cc4c3C(=O)N2)on1 [Example 946, (3S,7S,10R,13R)-13-benzyl-10-(2,2-difluoroethyl)-20-fluoro-7-isobutyl-6,9-dimethyl-N-(2-(3-methylisoxazol-5-yl)ethyl)-1,5,8,11-tetraoxo-1,2,3,4,5,6,7,8,9,10,11,12,13,14-tetradecahydro-[1]oxa[4,7,10,14]tetraazacycloheptadecino[16,17-f]quinoline-3-carboxamide] |
| 281 nM | 458% | COc1noc(CCNC(=O)[C@@H]2CC(=O)N(C)[C@@H](CC(C)C)C(=O)N(C)[C@H](CC(F)F)C(=O)N[C@H](Cc3ccccc3)COc3ccc4ncc(F)cc4c3C(=O)N2)n1 [Example 947, (3S,7S,10R,13R)-13-benzyl-10-(2,2-difluoroethyl)-20-fluoro-7-isobutyl-N-(2-(3-methoxy-1,2,4-oxadiazol-5-yl)ethyl)-6,9-dimethyl-1,5,8,11-tetraoxo-1,2,3,4,5,6,7,8,9,10,11,12,13,14-tetradecahydro-[1]oxa[4,7,10,14]tetraazacycloheptadecino[16,17-f]quinoline-3-carboxamide] |
| 61 nM | 501% | COc1cc(CCNC(=O)[C@@H]2CC(=O)N(C)[C@@H](CC(C)C)C(=O)N(C)[C@H](Cc3nc(C(F)(F)F)no3)C(=O)N[C@H](Cc3ccccc3)COc3ccnc(OC)c3C(=O)N2)on1 [Example 948, (3R,6R,9S,13S)-3-benzyl-9-isobutyl-16-methoxy-N-(2-(3-methoxyisoxazol-5-yl)ethyl)-7,10-dimethyl-5,8,11,15-tetraoxo-6-((3-(trifluoromethyl)-1,2,4-oxadiazol-5-yl)methyl)-2,3,4,5,6,7,8,9,10,11,12,13,14,15-tetradecahydropyrido[3,4-p][1]oxa[4,7,10,14]tetraazacycloheptadecine-13-carboxamide] |

| SMILES | EC50 | Emax |
| --- | --- | --- |
| Cc1cc2c(c3cccnc13)C(=O)N[C@H](C(=O)NCCc1noc(C3CC3)n1)CC(=O)N(C)[C@@H](CC(C)C)C(=O)N(C)[C@H](Cc1nc(C(F)(F)F)no1)C(=O)N[C@H](Cc1ccccc1)CO2 [Example 935, (3S,7S,10R,13R)-13-benzyl-N-(2-(5-cyclopropyl-1,2,4-oxadiazol-3-yl)ethyl)-7-isobutyl-6,9,17-trimethyl-1,5,8,11-tetraoxo-10-((3-(trifluoromethyl)-1,2,4-oxadiazol-5-yl)methyl)-1,2,3,4,5,6,7,8,9,10,11,12,13,14-tetradecahydro-[1]oxa[4,7,10,14]tetraazacycloheptadecino[16,17-f]quinoline-3-carboxamide] | 24 nM | 496% |
